These results are taken from EP0181129B1, “N6-substituted deoxyribose analogs of adenosines” (WARNER-LAMBERT COMPANY, priority 1984, dated 1986).

One assay has as its target T1, adenosine A1 receptor (Rattus norvegicus, UniProt P25099).
T1 construct: brain minus cerebellum and brainstem from male Long Evans rats (150-200 g) was homogenized; from tissue; host or cells: rat whole brain minus cerebellum and brainstem, membrane homogenate
T1 sequence (P25099 1-326): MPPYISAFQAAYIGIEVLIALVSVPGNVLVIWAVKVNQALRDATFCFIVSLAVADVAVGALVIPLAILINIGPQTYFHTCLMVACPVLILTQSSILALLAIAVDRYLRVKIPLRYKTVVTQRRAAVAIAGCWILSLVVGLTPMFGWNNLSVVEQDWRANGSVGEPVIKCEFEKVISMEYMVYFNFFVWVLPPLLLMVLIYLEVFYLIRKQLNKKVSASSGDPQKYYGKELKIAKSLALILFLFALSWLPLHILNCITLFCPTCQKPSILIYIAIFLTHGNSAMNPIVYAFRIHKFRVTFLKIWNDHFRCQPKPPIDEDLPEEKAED
Description: Adenosine Receptor Binding - A1 Receptor Affinity (RBA1), [3H]-CHA displacement. The conditions noted are these: 1.0 nM [3H]-CHA, rat whole brain membranes, one hour at 25°C; read-out: Receptor Binding RBA—1. The protocol:
While brain minus cerebellum and brainstem from male Long Evans rats (150-200 g) was homogenized in 30 volumes of ice-cold 0.05 M Tris-CHI buffer pH 7.7 using a Brinkman Polytron PT-10, (setting number 6 for 20 seconds) and centrifuged for ten minutes at 20,000 x g (Sorvall RC-2), 4°C. The supernatant was discarded, and the pellet was resuspended and centrifuged as before. The pellet was resuspended in 20 ml Tris-HCI buffer containing two International Units/ml of adenosine deaminase (Sigma type III from calf intestinal mucosa), incubated at 37°C for 30 minutes, then subsequently at 0°C for ten minutes. The homogenate was again centrifuged, and the final pellet was resuspended in ice-cold 0.05 M Tris-HCI buffer pH 7.7 to a concentration of 20 mg/ml original wet tissue weight and used immediately.
Tissue homogenate (10 mg/ml) was incubated in 0.05 M Tris-HCI buffer pH 7.7 containing 1.0 nM (^3H]-N^e-cyclohexyladenosine ([^3H]-CHA) with or without tests agents in triplicate for one hour at 25°C. Incubation volume was 2 ml. Unbound [^3H]-CHA was separated by rapid filtration under reduced pressure through Whatman glass fiber (GF/B) filters. The filters were rinsed three times with 5 ml of ice cold 0.05 M Tris-HCI buffer pH 7.7. The radio-labeled ligand retained on the filter was measured by liquid scintillation spectrophotometry after shaking the filters for one hour or longer on a mechanical shaker in 10 ml of Beckman Ready-Solv HP scintillation cocktail.
Nonspecific binding was defined as the binding which occurred in the presence of 1 mM theophylline. […] The Scatchard plot was calculated by linear regression of the line obtained by plotting the amount of radioligand bound (pmoles/gram of tissue) [formula] Since the amount of radioligand bound was a small fraction of the total amount added, free radioligand was defined as the concentration (nM) of radioligand added to the incubation mixture. The Hill coefficient was calculated by linear regression of the line obtained by plotting the log of the bound radioligand vs the log of the [formula] The maximal number of binding sites (Bmax) was calculated from the Scatchard plot.

Another assay deals with T2, adenosine A2 receptor (Rattus norvegicus, UniProt P30543).
T2 construct: Brains were thawed and then kept on ice while the striata were dissected out; tissue Pel-Freez (Rogers, Arkansas); host or cells: rat striatum, membranes
Description: Adenosine Receptor Binding - A2 Receptor Affinity (RBA2), [3H]NECA displacement. The conditions noted are these: 4 nM [3H]NECA with 50 nM N6-cyclopentyladenosine, rat striatal membranes, 60 minutes at 25°C; read-out: Receptor Binding RBA—2. Here is the method: Brains from 200-500 g mixed sex Sprague-Dawley rats were purchased from Pel-Freez (Rogers, Arkansas). Fresh brains from male Long-Evans hooded rats (Blue Spruce Farms, Altamont, NY) gave essentially indentical results. Brains were thawed and then kept on ice while the striata were dissected out. Striata were disrupted in 10 vol of ice-cold 50 mM Tris.HCI (pH 7.7 at 25°C, pH 8.26 at 5°C) (Tris) for 30 seconds in a Polytron PT―10 (Brinkmann) at setting 5. The suspension was centrifuged at 50,000 xg for ten minutes, the supernatant discarded, the pellet resuspended in 10 vol ice-cold Tris as above, recentrifuged, resuspended at 1 g/5 ml, and stored in plastic vials at -70°C (stable for at least six months). When needed, tissue was thawed at room temperature, disrupted in a Polytron, and kept on ice until used.
All incubations were for 60 minutes at 25°C in 12x75 mm glass tubes containing 1 ml Tris with 5 mg original tissue weight of rat weight of rat striatal membranes, 4 nM [^3H]-N-ethyl adenosine-5'-carboxamide ([^3H]NECA), 50 nM N^6-cyclopentyladenosine (to eliminate A1 receptor binding), 10 mM MgCl2, 0.1 units/ml, of adenosine deaminase and 1% dimethylsulfoxide. N^6-Cyclopentyladenosine was dissolved at 10 mM in 0.02 N HCI and diluted in Tris. Stock solutions and dilutions of N^6-cyclopentyladenosine could be stored at -20°C for several months. Test compounds were dissolved at 10 mM in dimethylsulfoxide or the same day as the experiment, and diluted in dimethylsulfoxide to 100x the final incubation concentration. Control incubations received an equal volume (10 µl) of dimethylsulfoxide; the resulting concentration of dimethylsulfoxide had no effect on binding. [^3H]NECA was diluted to 40 nM in Tris. The membrane suspension (5 mg/0.79 ml) contained sufficient MgCl2 and adenosine deaminase to give 10 mM and 0.1 units/ml, respectively, final concentration in the incubation. […] After all additions, the rack of tubes was vortexed, and the tubes were then incubated for 60 min at 25°C in a shaking water bath. The rack of tubes was vortexed an additonal time halfway through the incubation.
Incubations were terminated by filtration through 2.4 cm GF/B filters under reduced pressure. Each tube was filtered as follows: the contents of the tube were poured onto the filter, 4 ml of ice-cold Tris were added to the tube and the contents poured onto the filter, and the filter was washed twice with 4 ml of ice-cold Tris. The filtration was complete in about twelve seconds. Filters were put in scintillation vials, 8 ml of Formula 947 scintillation fluid added, and the vials left overnight, shaken, and counted in a liquid scintillation counter at 40% efficiency.
Nonspecific binding was defined as binding in the presence of […] N^6-cyclopentyladenosine, and specific binding was defined as total binding minus nonspecific binding. The IC50 was calculated by weighted nonlinear least squares curve-fitting to the mass-action equation. [formula] • where Y is cpm bound T is cpm total binding without drug S is cpm specific binding without drug D is the concentration of drug • and K is the IC50 of the drug Weighting factors were calculated under the assumption that the standard deviation was proportional to the predicted value of Y. Nonspecific binding was treated as a very large (infinite) concentration of drug in the computer analysis.

Assay [1] concerns Long-Evans rats or squirrel-monkeys. In words: Conditioned avoidance of electric footshock by lever pushing (SIDR). It counts as in vivo. The protocol:
A representative compound of the invention (identified in the Example 5) was also tested for antipsychotic activity according to the following protocol (SIDR). The noted compound has the indicated EDso values (mg/kg) and is considered active as an antipsychotic agent in the test procedure.
Mature male Long-Evans rats or squirrel-monkeys are conditioned to push a lever in order to avoid a painful electric footshock. If the animal fails to push the lever, he receives a shock every ten seconds until the lever is pushed. Shocks can be terminated by pushing the lever. Thereafter, as long as the lever is pushed at least once every 20 seconds, there will be no shock.
Each animal acts as its own control; one weekly session is used to establish baseline behavior and another session later in the week is used as a drug session. Once patterns of avoidance are established, the effects of standard and unknown compounds are studied.

For another assay, the system named is male Swiss-Webster mice. In words: Antiwrithing (AW) test, acetic acid induced writhing. It counts as in vivo. The conditions noted are these: Mus musculus, ip; administered intraperitoneally to mice; read-out: ED50 (dose necessary to suppress writhing by 50% relative to vehicle controls). (An intraperitoneal irritant provokes the stretching counted in writhing tests.)

T2 sequence (P30543 whole entry): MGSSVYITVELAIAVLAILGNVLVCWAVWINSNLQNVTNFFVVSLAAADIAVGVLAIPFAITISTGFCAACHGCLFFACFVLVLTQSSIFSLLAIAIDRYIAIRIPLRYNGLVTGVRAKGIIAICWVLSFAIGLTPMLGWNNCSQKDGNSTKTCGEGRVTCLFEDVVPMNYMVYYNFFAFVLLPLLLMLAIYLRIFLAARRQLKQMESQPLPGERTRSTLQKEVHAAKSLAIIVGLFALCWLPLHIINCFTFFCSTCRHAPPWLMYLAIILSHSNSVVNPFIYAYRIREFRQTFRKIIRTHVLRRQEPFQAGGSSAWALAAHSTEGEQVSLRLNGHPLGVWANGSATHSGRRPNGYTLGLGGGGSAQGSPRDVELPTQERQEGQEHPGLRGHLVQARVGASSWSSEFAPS

As usually defined, the ED50 is the dose that gives a 50% effect, or the effect in half of the subjects. With `C[C@H]1O[C@@H](n2cnc3c(NC4CCCC4)ncnc32)[C@H](O)[C@@H]1O` [Example 5, N^6-[Cyclopentyl]-5'-deoxyadenosine], the IC50 on adenosine A1 receptor was 0.016 µM; on adenosine A2 receptor it was 17.2 µM. Further, the ED50 turned out to be 2.8 mg/kg in assay [1] (Rattus norvegicus, species of the result not stated (rats or squirrel-monkeys), read-out: ED50 for blockade of avoidance) and 0.9 mg/kg with male Swiss-Webster mice. Moreover, in assay [1] (at 4 mg/kg), the “response for blockade of escape” value is reported as 10%.
